In ChEMBL document CHEMBL3351410, “The discovery of avanafil for the treatment of erectile dysfunction: a novel pyrimidine-5-carboxamide derivative as a potent and highly selective phosphodiesterase 5 inhibitor” (Bioorg Med Chem Lett, 2014) one finds Selectivity ratio, IC50 and EC30 data, which are given here for 30 compounds.

Some results are limits rather than exact numbers.

Experiment [1] can be described thus: Selectivity for dog lungs PDE5 over light-activated bovine retina PDE6.
For experiment [2], the target named is cGMP-specific 3',5'-cyclic phosphodiesterase (Canis lupus familiaris, UniProt O77746). Briefly: Inhibition of dog lungs PDE5 using [3H]cGMP as substrate after 30 mins by scintillation counting analysis.
The subject of experiment [3] is Corpus cavernosum. Briefly: Induction of relaxant effect in rabbit corpus cavernosum after 30 mins. The experiment is classed as functional, Oryctolagus cuniculus.
The species entered for experiment [4] is Homo sapiens. As to the kind of experiment: Selectivity for PDE5 (unknown origin) over PDE6 (unknown origin).
The species entered for experiment [5] is Homo sapiens. Briefly: Selectivity for PDE5 (unknown origin) over PDE7 (unknown origin).
Experiment [6] is filed under the species Homo sapiens. Briefly: Selectivity for PDE5 (unknown origin) over PDE8 (unknown origin).
For experiment [7], the species on record is Homo sapiens. As to the kind of experiment: Selectivity for PDE5 (unknown origin) over PDE4 (unknown origin).
The species entered for experiment [8] is Homo sapiens. As to the kind of experiment: Selectivity for PDE5 (unknown origin) over PDE11 (unknown origin).
The species entered for experiment [9] is Homo sapiens. Briefly: Selectivity for PDE5 (unknown origin) over PDE3 (unknown origin).
The species entered for experiment [10] is Homo sapiens. Briefly: Selectivity for PDE5 (unknown origin) over PDE2 (unknown origin).
The species named for experiment [11] is Homo sapiens. Briefly: Selectivity for PDE5 (unknown origin) over PDE1 (unknown origin).
The species named for experiment [12] is Homo sapiens. Briefly: Selectivity for PDE5 (unknown origin) over PDE9 (unknown origin).
The species entered for experiment [13] is Homo sapiens. As to the kind of experiment: Selectivity for PDE5 (unknown origin) over PDE10 (unknown origin).

One may read the IC50 as the concentration that inhibits the measured activity by half. Read a high IC50 as weaker potency in that assay. `COCCCNC(=O)c1cnc(OCc2ccccn2)nc1NCc1ccc(OC)c(Cl)c1`: in experiment [1], the Selectivity ratio stood at 240. Further, the IC50 in [2] is 15 nM.

For the compound `COc1ccc(CNc2nc(OCc3ccccn3)ncc2C(=O)OCc2ncccn2)cc1Cl`, in experiment [1], the Selectivity ratio is 640. In [2], this compound came in with an IC50 of 4.2 nM.

The term EC30 denotes the point of the concentration-response curve where the effect stands at 30%. Low readings indicate greater potency, high ones weaker potency. In experiment [3], `COc1ccc(CNc2nc(N3CCC[C@H]3CO)ncc2C(=O)N[C@H]2CC[C@H](O)CC2)cc1Cl` registered an EC30 greater than 100 nM. The Selectivity ratio in experiment [1] is 5600. Further, the IC50 in [2] is 1.8 nM.

Consider `COc1ccc(CNc2nc(N3CCCCC3CO)ncc2C(=O)NCc2ccccn2)cc1Cl` (configuration not stated), for which, in [2], the IC50 amounted to 54 nM.

On to `COc1ccc(CN=c2[nH]c(N3CCC[C@H]3CO)ncc2C(=O)NCc2ncccn2)cc1Cl` [AVANAFIL], for which, in [2], the half-maximal inhibitory concentration (IC50) was 5.2 nM.

In the case of `COc1ccc(CNc2nc(OCc3ccccn3)ncc2C(=O)NCCN2CCOCC2)cc1Cl`, the Selectivity ratio in experiment [1] is 630. The IC50 in experiment [2] was found to be 5.6 nM.

With `COc1ccc(CNc2nc(N3CCC[C@H]3CO)ncc2C(=O)N[C@H]2CC[C@H](OC)CC2)cc1Cl`, in experiment [3], the EC30 was determined as 6.8 nM. In addition, in experiment [1], the Selectivity ratio is 7700. The IC50 in [2] was 0.9 nM.

Turning to `COc1ccc(CNc2nc(N3CCOC(CO)C3)ncc2C(=O)NCc2ccccn2)cc1Cl` (configuration not stated), the IC50 in [2] came to 32 nM.

On to `COc1ccc(CNc2nc(OCc3ccccn3)ncc2C(=O)NCc2ncccn2)cc1Cl`, for which, in experiment [1], the Selectivity ratio stood at 720. Also, the IC50 in [2] was 12 nM.

In the case of `COc1ccc(CNc2nc(N(C)CCO)ncc2C(=O)NCc2ccccn2)cc1Cl`, in experiment [2], 32 nM corresponded to half-maximal inhibition (IC50).

In [3], `CCOC(=O)c1cnc(OCc2ccccn2)nc1NCc1ccc(OC)c(Cl)c1` showed an EC30 of 37 nM. In [2], inhibition was half-maximal at 5.5 nM (IC50).

On to `COc1ccc(CNc2nc(N3CCOC[C@H]3CO)ncc2C(=O)NCc2ncccn2)cc1Cl`, for which the IC50 in experiment [2] is greater than 100 nM.

In the case of `COc1ccc(CNc2nc(OCc3ccccn3)ncc2C(=O)NCc2ccccn2)cc1Cl`, in experiment [1], the Selectivity ratio amounted to 480. This compound came in with an IC50 in experiment [2] of 2.7 nM.

As for `COc1ccc(CNc2nc(N3Cc4ccccc4C[C@H]3CO)ncc2C(=O)NCc2ccccn2)cc1Cl`, it took 6.5 nM to reach half-maximal inhibition in experiment [2] (IC50).

`COc1ccc(CNc2nc(N3CCC[C@H]3CO)ncc2C(=O)NCc2ccccn2)cc1Cl` gave an EC30 in experiment [3] of 22 nM. Further, the Selectivity ratio in experiment [1] was determined as 4300. Further, the IC50 in experiment [2] worked out at 1.2 nM.

As for `CCCc1nn(C)c2c(=O)[nH]c(-c3cc(S(=O)(=O)N4CCN(C)CC4)ccc3OCC)nc12`, in experiment [4], the Selectivity ratio was 16.

`COc1ccc(CNc2nc(N3CCC[C@H]3CO)ncc2C(=O)NCc2ncccn2)cc1Cl` [AVANAFIL] gave an EC30 in [3] of 2.1 nM. Also, the Selectivity ratio was 4000 in experiment [1]; greater than 1000 in experiment [5]; greater than 1000 in experiment [6]; greater than 1000 in experiment [7]; greater than 19200 in experiment [8]; greater than 1000 in experiment [9]. For the same compound, the Selectivity ratio in [4] was 121; in experiment [10], greater than 1000; in experiment [11], greater than 1000; in experiment [12] it was greater than 1000; in [13], greater than 1000.

`COc1ccc(CNc2nc(N3CCC[C@@H]3CO)ncc2C(=O)NCc2ncccn2)cc1Cl` showed an IC50 in experiment [2] of 36 nM.

For `CN1CC(=O)N2[C@H](c3ccc4c(c3)OCO4)c3[nH]c4ccccc4c3C[C@@H]2C1=O`, the figures for the Selectivity ratio in experiment [8] and in [4] were 25 and 550, respectively.

With `COc1ccc(CNc2nc(OCc3ccccn3)ncc2C(=O)N[C@H]2CC[C@H](O)CC2)cc1Cl`, the Selectivity ratio in experiment [1] is 510. Also, half-maximal inhibition in experiment [2] (IC50) was put at 3.5 nM.

`COc1ccc(CNc2nc(N3CCCC(CO)C3)ncc2C(=O)NCc2ncccn2)cc1Cl` (configuration not stated) came in with an IC50 in [2] of 63 nM.

Turning to `COc1ccc(CNc2nc(OCc3ccccn3)ncc2C(=O)OCc2ccccn2)cc1Cl`, the Selectivity ratio in experiment [1] was 1000. In [2], half-maximal inhibition (IC50) was put at 2.1 nM.

In [3], `COc1ccc(CNc2nc(N3CCC[C@H]3CO)ncc2C(=O)NCC2CN(C)CCO2)cc1Cl` (some centres not stated) displayed an EC30 of 2.7 nM. The Selectivity ratio in experiment [1] is 2000. Also, the IC50 in experiment [2] was 6.1 nM.

In turn, `COc1ccc(CNc2nc(OCc3ccccn3)ncc2C(=O)N(C)Cc2ccccn2)cc1Cl` showed an IC50 in experiment [2] of 85 nM.

As to `COc1ccc(CNc2nc(OCc3ccccn3)ncc2C(=O)NCCCO)cc1Cl`, the Selectivity ratio in experiment [1] amounted to 420. Besides, in experiment [2], 13 nM corresponded to half-maximal inhibition (IC50).

On to `CCCc1nc(C)c2c(=O)nc(-c3cc(S(=O)(=O)N4CCN(CC)CC4)ccc3OCC)[nH]n12`, for which the Selectivity ratio in [4] stood at 21.

In the case of `COc1ccc(CNc2nc(N3CCC(O)CC3)ncc2C(=O)NCc2ccccn2)cc1Cl`, the IC50 in experiment [2] is 59 nM.

In experiment [2], `COc1ccc(CNc2nc(N3CCC(CO)C3)ncc2C(=O)NCc2ncccn2)cc1Cl` (configuration not stated) returned an IC50 of 25 nM.

The compound `COc1ccc(CNc2nc(N3CCC[C@H]3CO)ncc2C(=O)NCCCO)cc1Cl` displayed an EC30 in experiment [3] of 4.9 nM. Also, the Selectivity ratio in experiment [1] was 1500. Besides, the IC50 in experiment [2] was found to be 6.6 nM.

In the case of `COc1ccc(CNc2nc(OCc3ccccn3)ncc2C(=O)NCCCCO)cc1Cl`, in experiment [1], the Selectivity ratio worked out at 480. The IC50 in experiment [2] turned out to be 12 nM.
